Experimental data taken from patent US12662676B2, “Aptamer nucleic acid molecule, and complex and application thereof” (EAST CHINA UNIVERSITY OF SCIENCE AND TECHNOLOGY, priority 2019, dated 2026).

Assay: Fluorescence activation of III-3 fluorophore by Pepper aptamers and mutants
Assay type: biochemical
Conditions: 1 μM III-3 with 5 μM RNA
Procedure: Preparation of Pepper or Pepper mutant aptamer according to the commonly used experimental method (1). 5 μM aptamer and 1 μM fluorophore were incubated in the detection buffer (40 mM HEPES, pH 7.4, 125 mM KCl, 5 mM MgCl2, 5% DMSO). The maximal excitation and emission peaks of the aptamer-fluorophore complexes were determined using a Synergy Neo2 multifunctional microplate reader. The fluorescence intensities of the aptamer-fluorophore complexes at the maximal excitation and emission peaks were determined using a Synergy Neo2 multifunctional microplate reader. The control sample (1 μM fluorophore without aptamer) was also measured under the same conditions. Then the ratios of fluorescence intensity were calculated. For example, the fluorescence maximal excitation and emission peaks of the complex of 5 μM F30-Pepper-2 and 1 μM III-3 fluorophore are 485 nm and 530 nm, respectively. The fluorescence intensity of the complex at 485±10 nm excitation and 530 nm±10 nm emission was 36,000, the fluorescence intensity of the control sample (1 μM III-3 fluorophore only) under the same detection conditions was 10. Thus, the activation ratio of F30-Pepper-2 aptamer on III-3 fluorophore was 3,600-fold.
In order to detect the fluorescence activation of III-3 fluorophore by different Pepper mutant, the Pepper-1 sequence in F30-Pepper-1 was mutated according to Table 1. […] 1 μM III-3 was incubated with […] RNA and their fluorescence activation folds were determined according to the commonly used experimental method (5). […] In summary, many Pepper mutants containing single and multiple mutants still retain the ability to activate the fluorescence of III-3 fluorophore.
In order to detect the activation of III-3 by modified Pepper, base-modified Pepper-3 was synthesized (SEQ ID NO: 6, the underlined nucleotides in […] GGCC contain deoxyribonucleotide bases) and Pepper-4 (SEQ ID NO: 7, the underlined nucleotides in […] GGGCC contain 2′-F modification) (synthesized by Shanghai GenePharma Co., Ltd), which contain deoxyribonucleotides replacement (shaded bases in FIG. 5A) or 2′-F modification (shaded bases in FIG. 5B) in the stem-loop region of Pepper. Detection of the fluorescence activation of III-3 fluorophore by these modified Peppers was carried out according to the commonly used experimental method (5).

[1] = Activation of III-3 by Pepper mutants with single mutation
[2] = Activation of III-3 by Pepper mutants with multiple mutations

| Substance | Activation folds [1] | Activation folds [2] |
| --- | --- | --- |
| A4C: F30-Pepper-1 mutant aptamer (NCCCAUCGUGGCGUGUCGNNNACUGGCGCCGN; Pepper mutant embedded in F30 scaffold, chemistry not given here, further chemistry not given here) [Compound A4C] | 2772 folds |  |
| A5C: F30-Pepper-1 mutant aptamer (NCCACUCGUGGCGUGUCGNNNACUGGCGCCGN; Pepper mutant embedded in F30 scaffold, chemistry not given here, further chemistry not given here) [Compound A5C] | 2628 folds |  |
| C2A/G31U/G10A/C30U: F30-Pepper-1 mutant aptamer (NACAAUCGUAGCGUGUCGNNNACUGGCGCUUN; Pepper mutant embedded in F30 scaffold, chemistry not given here, further chemistry not given here) |  | 3105 folds |
| C2A/G31U/G10C/C30G: F30-Pepper-1 mutant aptamer (NACAAUCGUCGCGUGUCGNNNACUGGCGCGUN; Pepper mutant embedded in F30 scaffold, chemistry not given here, further chemistry not given here) |  | 3475 folds |
| C2A/G31U/G10U/C30A: F30-Pepper-1 mutant aptamer (NACAAUCGUUGCGUGUCGNNNACUGGCGCAUN; Pepper mutant embedded in F30 scaffold, chemistry not given here, further chemistry not given here) |  | 3024 folds |
| C2A/G31U: F30-Pepper-1 mutant aptamer (NACAAUCGUGGCGUGUCGNNNACUGGCGCCUN; Pepper mutant embedded in F30 scaffold, chemistry not given here, further chemistry not given here) |  | 3365 folds |
| C2G/G31C/G10A/C30U/U6G/C27U: F30-Pepper-1 mutant aptamer (NGCAAGCGUAGCGUGUCGNNNACUGGUGCUCN; RNA, backbone, methylation of C and the base at N not given here; Pepper aptamer mutant embedded in F30 scaffold) |  | 758 folds |
| C2G/G31C/G10A/C30U: F30-Pepper-1 mutant aptamer (NGCAAUCGUAGCGUGUCGNNNACUGGCGCUCN; Pepper mutant embedded in F30 scaffold, chemistry not given here, further chemistry not given here) |  | 2365 folds |
| C2G/G31C/G10C/C30G/U6G/C27U: F30-Pepper-1 mutant aptamer (NGCAAGCGUCGCGUGUCGNNNACUGGUGCGCN; RNA, backbone, methylation of C and the base at N not given here; Pepper aptamer mutant embedded in F30 scaffold) |  | 736 folds |
| C2G/G31C/G10C/C30G: F30-Pepper-1 mutant aptamer (NGCAAUCGUCGCGUGUCGNNNACUGGCGCGCN; Pepper mutant embedded in F30 scaffold, chemistry not given here, further chemistry not given here) |  | 2684 folds |
| C2G/G31C/G10U/C30A: F30-Pepper-1 mutant aptamer (NGCAAUCGUUGCGUGUCGNNNACUGGCGCACN; Pepper mutant embedded in F30 scaffold, chemistry not given here, further chemistry not given here) |  | 3125 folds |
| C2U/G31A/G10C/C30G: F30-Pepper-1 mutant aptamer (NUCAAUCGUCGCGUGUCGNNNACUGGCGCGAN; Pepper mutant embedded in F30 scaffold, chemistry not given here, further chemistry not given here) |  | 2986 folds |
| C2U/G31A/G10U/C30A: F30-Pepper-1 mutant aptamer (NUCAAUCGUUGCGUGUCGNNNACUGGCGCAAN; Pepper mutant embedded in F30 scaffold, chemistry not given here, further chemistry not given here) |  | 2583 folds |
